Experimental data from patent publication US20240336593A1, “Compound Having Antitumor Activity And Use Thereof” (lnnovStoneTherapeutics Limited, priority 2020, published 2024).
pIC50: −log10 of the molar value.

Target: PRMT5 (Homo sapiens (Human), UniProt O14744)
Assay: Inhibitory activity against PRMT5 enzyme by radioisotopic method
Type: biochemical
Conditions: PRMT5 5 nM, [3H]-SAM 0.3 μM, polypeptide substrate GL-27 100 nM, room temperature
Procedure: Test Example 1. Test on the inhibitory activity of the compounds of the invention against PRMT5 enzyme by radioisotopic method
Test method: A 1× enzyme reaction buffer (10 mM Tris 8.0 (Sigma, Cat. No. T2694-1L), 0.01% Tween-20 (Sigma, Cat. No. P2287-100 ML), 1 mM DTT (Sigma, Cat. No. D0632-10G)) was prepared. PRMT5 (Active Motif, Cat. No. 31921) and [3H]—SAM (PerkinElmer, Cat. No. NET155V001MC) were added to the 1×enzyme reaction buffer, to prepare a 25/15× mixed solution (PRMT5 final concentration: 5 nM, [3H]—SAM final concentration: 0.3 μM). 15 μL of this solution was transferred into a 384-well microplate (Corning 384-well Polypropylene Storage Microplates, Cat. No. 3657) with various concentrations of the compounds (DMSO final concentration 1%), and incubated at room temperature for 60 minutes. A polypeptide substrate, GL-27 (Ac-[…]-K (Biotin) (GL Biochem, Cat. No. 342095)), was added into the 1×enzyme reaction buffer to prepare a 25/10× substrate solution. Then 10 μL of the polypeptide substrate solution (final concentration of the polypeptide substrate: 100 nM) was added, a reaction was stirred at room temperature for 120 minutes, and then 5 μL 6× ice cold SAM (Sigma, Cat. No. A7007-100 MG) solution was added to stop the reaction (SAM final concentration: 0.125 mM). 25 µL of the reaction mixture was transferred into a FlashPlate (Streptavidin FlashPlate HTS PLUS, High Capacity, 384-well, Perkin Elmer, Cat. No. SMP410A001PK), and incubated at room temperature for 1 h. After washed three times with distilled water containing 0.1% Tween-20, the microplate was read on a MicroBeta reader for CPM data (Counts Per Minute). […] Then the inhibition rate Inh % (Y) corresponding to each concentration (X) was input in EXCEL, and the IC50 value (the half maximal inhibitory concentration) of each compound was calculated with the XLfit plug-in according to the built-in four-parameter fitting equation Y=Bottom+(Top-Bottom)/(1+(IC50/X)[…]).

PRMT5, sequence (O14744 whole entry): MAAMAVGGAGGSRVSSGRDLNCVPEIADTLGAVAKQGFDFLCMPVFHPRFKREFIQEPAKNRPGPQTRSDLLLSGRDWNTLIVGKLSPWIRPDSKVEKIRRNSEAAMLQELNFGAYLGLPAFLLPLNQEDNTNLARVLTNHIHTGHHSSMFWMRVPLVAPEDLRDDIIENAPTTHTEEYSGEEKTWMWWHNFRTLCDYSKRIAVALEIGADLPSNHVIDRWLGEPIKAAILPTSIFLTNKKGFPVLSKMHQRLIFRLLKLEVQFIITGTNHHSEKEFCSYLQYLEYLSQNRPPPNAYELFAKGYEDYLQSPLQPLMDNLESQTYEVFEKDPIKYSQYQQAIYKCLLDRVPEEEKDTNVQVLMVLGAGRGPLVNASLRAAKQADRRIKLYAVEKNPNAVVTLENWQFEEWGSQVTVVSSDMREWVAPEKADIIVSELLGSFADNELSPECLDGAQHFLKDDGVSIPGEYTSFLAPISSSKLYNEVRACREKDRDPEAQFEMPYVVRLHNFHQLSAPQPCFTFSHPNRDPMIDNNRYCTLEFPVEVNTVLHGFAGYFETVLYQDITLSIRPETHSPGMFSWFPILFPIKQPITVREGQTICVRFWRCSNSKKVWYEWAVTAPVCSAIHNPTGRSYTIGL
PRMT5, sequence (Q9BQA1 whole entry partner): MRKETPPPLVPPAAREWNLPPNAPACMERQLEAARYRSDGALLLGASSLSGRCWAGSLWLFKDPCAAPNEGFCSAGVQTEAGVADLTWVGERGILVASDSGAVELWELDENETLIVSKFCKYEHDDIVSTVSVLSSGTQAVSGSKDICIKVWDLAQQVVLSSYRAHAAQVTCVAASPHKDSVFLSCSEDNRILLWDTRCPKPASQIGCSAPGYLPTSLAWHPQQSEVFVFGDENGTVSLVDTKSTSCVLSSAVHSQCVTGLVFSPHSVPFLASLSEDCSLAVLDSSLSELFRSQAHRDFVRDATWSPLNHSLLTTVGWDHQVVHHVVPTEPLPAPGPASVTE

Row | SMILES | pIC50
1 | CC(=O)N1CCC(CCNc2cc(C(=O)N3CC[C@H](N4CCc5ccccc5C4)[C@@H](O)C3)ncn2)CC1 (relative stereo) [Example 115, trans-1-(4-(2-((6-(4-(3,4-dihydroisoquinolin-2(1H)-yl)-3-hydroxy-piperidine-1-carbonyl)pyrimidin-4-yl)amino)ethyl)piperidin-1-yl)ethanone] | > 7.00
2 | O[C@@H]1CN(c2cc(Nc3cccc(Cl)c3Cl)ncn2)CC[C@H]1N1CCc2ccccc2C1 [Example 89] | > 7.00
3 | CNC(=O)c1ccc(Nc2cc(C(=O)N3CC[C@H](N4CCc5ccccc5C4)[C@@H](O)C3)ncn2)cc1 (relative stereo) [Example 131, trans-4-((6-(4-(3,4-dihydroisoquinolin-2(1H)-yl)-3-hydroxypiperidine-1-carbonyl)pyrimidin-4-yl)amino)-N-methylbenzamide] | > 7.00
4 | O[C@@H]1CN(c2cc(Nc3ccc(N4CCCC4)cc3)ncn2)CC[C@H]1N1CCc2ccccc2C1 (relative stereo) [Example 95, trans-4-(3,4-dihydroisoquinolin-2(1H)-yl)-1-(6-((4-(pyrrolidin-1-yl)phenyl)amino)pyrimidin-4-yl)piperidin-3-ol] | > 7.00
5 | O[C@@H]1CN(c2cc(Nc3cccc(N4CCCC4)c3)ncn2)CC[C@H]1N1CCc2ccccc2C1 (relative stereo) [Example 67, trans-4-(3,4-dihydroisoquinolin-2(1H)-yl)-1-(6-((3-(pyrrolidin-1-yl)phenyl)amino)pyrimidin-4-yl)piperidin-3-ol] | > 7.00
6 | CC(=O)N1CCC(Nc2cc(C(=O)N3CC[C@@H](N4CCc5ccccc5C4)[C@H](O)C3)nc(OCC(C)C)n2)CC1 [Example 140, 1-(4-((6-((3R,4R)-4-(3,4-dihydro-4,4-dideuterium-isoquinolin-2(1H)-yl)-3-hydroxypiperidine-1-carbonyl)-2-isobutoxypyrimidin-4-yl)amino)piperidin-1-yl)ethan-1-one] | > 7.00
7 | O=C(C(=O)N1CCC2(CC1)CC(Nc1cc(C(=O)N3CC[C@H](N4CCc5ccccc5C4)[C@@H](O)C3)ncn1)C2)C1CC1 (relative stereo) [Example 98, 1-cyclopropyl-2-(2-((6-(trans-4-(3,4-dihydroisoquinolin-2(1H)-yl)-3-hydroxypiperidine-1-carbonyl)pyrimidin-4-yl)amino)-7-azaspiro[3.5]nonan-7-yl)ethane-1,2-dione] | > 7.00
8 | CC(=O)N1CCC(Nc2cc(C(=O)N3CC[C@@H](N4CCc5ccccc5C4)[C@H](O)C3)nc(N3CCN(C)CC3)n2)CC1 [Example 149, 1-(4-((6-((3R,4R)-4-(3,4-dihydroisoquinolin-2(1H)-yl)-3-hydroxypiperidine-1-carbonyl)-2-(4-methylpiperazin-1-yl)pyrimidin-4-yl)amino)piperidin-1-yl)ethan-1-one] | > 7.00
9 | O[C@@H]1CN(c2cc(Nc3cccc(N4CCOCC4)c3)ncn2)CC[C@H]1N1CCc2ccccc2C1 (relative stereo) [Example 73, trans-4-(3,4-dihydroisoquinolin-2(1H)-yl)-1-(6-((3-morpholinophenyl)amino)pyrimidin-4-yl)piperidin-3-ol] | > 7.00
10 | O=C(c1cc(NC2CCOCC2)ncn1)N1CC[C@H](N2CCc3ccccc3C2)[C@@H](O)C1 [Example 109] | > 7.00
11 | O=C(c1cc(NC2CCN(C(=O)C3CC3)CC2)ncn1)N1CC[C@H](N2CCc3ccccc3C2)[C@@H](O)C1 (relative stereo) [Example 116, trans-(6-((1-(cyclopropanecarbonyl)piperidin-4-yl)amino)pyrimidin-4-yl)(4-(3,4-dihydroisoquinolin-2(1H)-yl)-3-hydroxypiperidin-1-yl)ketone] | > 7.00
12 | CC(=O)N1CCC(Nc2cc(C(=O)N3CC[C@@H](N4CCc5ccccc5C4)[C@H](O)C3)nc([S+]([O-])C(C)C)n2)CC1 (stereo partly drawn) [Example 157, 1-(4-((6-((3R,4R)-4-(3,4-dihydroisoquinolin-2(1H)-yl)-3-hydroxypiperidine-1-carbonyl)-2-(isopropylsulfinyl)pyrimidin-4-yl)amino)piperidin-1-yl)ethan-1-one] | > 7.00
13 | CC(=O)N1CCC(Nc2cc(C(=O)N3CC[C@H](N4CCc5ccccc5C4)[C@@H](O)C3)nc(Cl)n2)CC1 (relative stereo) [Example 117, trans-1-(4-((2-chloro-6-(4-(3,4-dihydroisoquinolin-2(1H)-yl)-3-hydroxypiperidine-1-carbonyl)pyrimidin-4-yl)amino)piperidin-1-yl)ethan-1-one] | > 7.00
14 | O[C@H]1CN(c2cc(Nc3ccccc3N3CCOCC3)ncn2)CC[C@@H]1N1CCc2ccccc2C1 (relative stereo) [Example 50, trans-4-(3,4-dihydroisoquinolin-2(1H)-yl)-1-(6-((2-morpholinylphenyl)-amino)pyrimidin-4-yl)piperidin-3-ol] | > 7.00
15 | O[C@H]1CN(c2cc(Nc3ccccc3Cl)ncn2)CC[C@@H]1N1CCc2ccccc2C1 (relative stereo) [Example 54, trans-4-(3,4-dihydroisoquinolin-2(1H)-yl)-1-(6-((2-chlorophenyl)amino)pyrimidin-4-yl)piperidin-3-ol] | > 7.00
16 | CC(C)(C)c1cccc(Nc2cc(N3CC[C@H](N4CCc5ccccc5C4)[C@@H](O)C3)ncn2)c1 (relative stereo) [Example 37, trans-1-(6-((3-t-butylphenyl)amino)pyrimidin-4-yl)-4-(3,4-dihydroisoquinolin-2(1H)-yl)piperidin-3-ol] | > 7.00
17 | CC(=O)N1CCCC(Nc2cc(C(=O)N3CC[C@H](N4CCc5ccccc5C4)[C@@H](O)C3)ncn2)C1 (relative stereo) [Example 106, trans-1-(3-((6-(4-(3,4-dihydroisoquinolin-2(1H)-yl)-3-hydroxypiperidine-1-carbonyl)pyrimidin-4-yl)amino)piperidin-1-yl)ethan-1-one] | > 7.00
18 | CC(=O)N1CCC(Nc2cc(C(=O)N3CC[C@H](N4CCc5ccccc5C4)[C@@H](O)C3)nc(-c3ccncc3)n2)CC1 [Example 139] | > 7.00
19 | O[C@H]1CN(c2cc(Nc3ccccc3C(F)(F)F)ncn2)CC[C@@H]1N1CCc2ccccc2C1 (relative stereo) [Example 58, trans-4-(3,4-dihydroisoquinolin-2(1H)-yl)-1-(6-((2-trifluoromethylphenyl)amino)pyrimidin-4-yl)piperidin-3-ol] | > 7.00
20 | CC(=O)N1CCC(Nc2cc(C(=O)N3CC[C@H](N4CCc5ccccc5C4)[C@@H](O)C3)nc(-c3ccccc3)n2)CC1 [Example 104] | > 7.00
21 | COC(=O)N1CCC(Nc2cc(C(=O)N3CC[C@H](N4CCc5ccccc5C4)[C@@H](O)C3)ncn2)CC1 (relative stereo) [Example 123, methyl trans-4-((6-(4-(3,4-dihydroisoquinolin-2(1H)-yl)-3-hydroxypiperidine-1-carbonyl)pyrimidin-4-yl)amino)piperidine-1-carboxylate] | > 7.00
22 | CC(=O)N1CCC(Nc2cc(C(=O)N3CC[C@H](N4CCc5ccccc5C4)[C@@H](O)C3)nc(N(C)C)n2)CC1 (relative stereo) [Example 118, trans-1-(4-((6-(4-(3,4-dihydroisoquinolin-2(1H)-yl)-3-hydroxypiperidine-1-carbonyl)-2-(dimethylamino)pyrimidin-4-yl)amino)piperidin-1-yl)ethan-1-one] | > 7.00
23 | O[C@@H]1CN(c2cc(Nc3ccccc3OCC(F)(F)F)ncn2)CC[C@H]1N1CCc2ccccc2C1 (relative stereo) [Example 91, trans-1-(6-((2-(2,2,2-trifluoroethoxy)phenyl)amino)pyrimidin-4-yl)-4-(3,4-dihydroisoquinolin-2(1H)-yl)piperidin-3-ol] | > 7.00
24 | CC(=O)N1CCC(Nc2cc(C(=O)N3CC[C@H](N4CCc5ccccc5C4)[C@@H](O)C3)ncn2)CC1 (relative stereo) [Example 17, trans-1-(4-((6-(4-(3,4-dihydroisoquinolin-2(1H)-yl)-3-hydroxypiperidine-1-carbonyl)pyrimidin-4-yl)amino)piperidin-1-yl)ethanone] | > 7.00
25 | O=C(c1cc(Nc2ccccc2)ncn1)N1CC[C@H](N2CCc3ccccc3C2)[C@@H](O)C1 [Example 101] | > 7.00
26 | CC(=O)N1CCC(Nc2cc(C(=O)N3CC[C@@H](N4CCc5ccccc5C4)[C@H](O)C3)nc(OC3CCC(F)(F)CC3)n2)CC1 [Example 154, 1-(4-((2-((4,4-difluorocyclohexyl)oxy)-6-((3R,4R)-4-(3,4-dihydroisoquinolin-2(1H)-yl)-3-hydroxypiperidine-1-carbonyl)pyrimidin-4-yl)amino)-piperidin-1-yl)ethan-1-one] | > 7.00
